In patent US8557984B2, “Imidazo [4, 5-C] quinoline derivatives as bromodomain inhibitors” (GlaxoSmithKline LLC, priority 2009, dated 2013):

What was measured:
Balb/c male mice = test: In Vivo Mouse Endotoxemia Model; details: 15 mg/kg LPS i.p., compound 10 mg/kg intravenously ninety minutes later; for Numbers of animals surviving at 4 days (summed across multiple repeat experiments): survivors/total
Description: High doses of Endotoxin (bacterial lipopolysaccharide) administered to animals produce a profound shock syndrome including a strong inflammatory response, dysregulation of cardiovascular function, organ failure and ultimately mortality. This pattern of response is very similar to human sepsis and septic shock, where the body's response to a significant bacterial infection can be similarly life threatening.
To test the compounds for use in the invention groups of eight Balb/c male mice were given a lethal dose of 15 mg/kg LPS by intraperitoneal injection. Ninety minutes later, animals were dosed intravenously with vehicle (20% cyclodextrin 1% ethanol in apyrogen water) or compound (10 mg/kg). The survival of animals was monitored at 4 days.
Numbers of animals surviving at 4 days (summed across multiple repeat experiments)

TNFα = test: LPS Stimulated Whole Blood Measuring TNFα Levels Assay; format: cell-based; details: LPS 200 ng/ml, 24 h, read-out: pIC50 (TNFα levels) (converted)
Procedure: (§1) Activation of monocytic cells by agonists of toll-like receptors such as bacterial lipopolysaccharide (LPS) results in production of key inflammatory mediators including TNFα. Such pathways are widely considered to be central to the pathophysiology of a range of auto-immune and inflammatory disorders.
Compounds to be tested are diluted to give a range of appropriate concentrations and 1 ul of the dilution stocks is added to wells of a 96 plate. Following addition of whole blood (130 ul) the plates are incubated at 37 degrees (5% CO2) for 30 min before the addition of 10 ul of 2.8 ug/ml LPS, diluted in complete RPMI 1640 (final concentration=200 ng/ml), to give a total volume of […] per well. After further incubation for 24 h at 37 degrees, 140 ul of PBS are added to each well. The plates are sealed, shaken for 10 minutes and then centrifuged (2500 rpm×10 min). 100 ul of the supernatant are removed and TNFα levels assayed by immunoassay (typically by MesoScale Discovery technology) either immediately or following storage at −20 degrees. Dose response curves for each compound was generated from the data and an IC50 value was calculated.

IL-6 = test: Measurement of LPS Induced IL-6 Secretion from Whole Blood; format: cell-based; details: LPS 200 ng/ml, 24 hours, read-out: pIC50 (IL-6 levels) (converted)
Procedure: as §1, with “IL-6.” for “TNFα.”
Compounds to be tested are diluted to give a range of appropriate concentrations of which 1 ul of the diluted stocks is added to a 96 well plate. Following addition of whole blood (130 ul) the plates are incubated at 37 degrees (5% CO2) for 30 min before the addition of 10 ul of 2.8 ug/ml LPS, diluted in complete RPMI 1640 (final concentration=200 ng/ml), to give a total volume of 140 ul per well. After further incubation for 24 hours at 37 degrees, 140 ul of PBS are added to each well. The plates are sealed, shaken for 10 minutes and then centrifuged (2500 rpm×10 min). 100 ul of the supernatant are removed and IL-6 levels assayed by immunoassay (typically by MesoScale Discovery technology) either immediately or following storage at −20 degrees. Concentration response curves for each compound was generated from the data and an IC50 value was calculated

heme cell lines = test: Oncology Cell Growth Assay, heme cell lines; format: cell-based; details: Homo sapiens, 72 hours, CellTiter-Glo, read-out: gIC50
Procedure: (§2) Human cell lines (n=33 comprising 15 heme cell lines, […] and 4 other cell lines) were cultured in RPMI-1640 containing 10% fetal bovine serum, 1000 viable cells per well were plated in 384-well black flat bottom polystyrene plates (Greiner #781086) in 48 μl of culture media. All plates were placed at 5% CO2, 37° C. overnight. The following day one plate was harvested with CellTiter-Glo (CTG, Promega #G7573) for a time equal to 0 (T0) measurement and compound (20 point titration from 14.7 uM to 7 pM) was added to the remaining plates. The final concentration of DMSO in all wells was 0.15%. Cells were incubated for 72 hours or the indicated time and each plate was developed with CellTiter-Glo reagent using a volume equivalent to the cell culture volume in the wells. Plates were shaken for approximately 2 minutes and chemiluminescent signal was read on the Analyst GT (Molecular Devices) or EnVision Plate Reader (Perkin Elmer).
(§3) Results were expressed as a percent of the T0 and plotted against the compound concentration. […] The Ymin-T0 value is determined by subtracting the T0 value (100%) from the Ymin value (%) determined from the fit of the concentration response curve. […]

breast cell lines = test: Oncology Cell Growth Assay, breast cell lines; format: cell-based; details: Homo sapiens, 72 hours, CellTiter-Glo, read-out: gIC50
Procedure: as §2, §3

[1] = tested on: Human cell lines (n=33 comprising 15 heme cell lines, 14 breast cell lines and 4 other cell lines); test: Oncology Cell Growth Assay, all cell lines; format: cell-based; details: across all cell lines, 72 hours, CellTiter-Glo, read-out: gIC50
Procedure: as §2, §3

| SMILES | IC50 (TNFα) [µM] | IC50 (IL-6) [µM] | other results |
| --- | --- | --- | --- |
| COc1cc2c(cc1-c1c(C)noc1C)ncc1nc(C3CCOCC3)n([C@H](C)c3ccccc3)c12 [Example 31, 7-(3,5-dimethyl-4-isoxazolyl)-8-(methoxy)-1-[(1R)-1-phenylethyl]-2-(tetrahydro-2H-pyran-4-yl)-1H-imidazo[4,5-c]quinoline] | ≤ 3.16 |  | Animals surviving at 4 days, percent (Balb/c male mice): 38%; Numbers of animals surviving at 4 days (summed across multiple repeat experiments) (Balb/c male mice): 9/24 |
| COCCn1c(=O)n([C@H](C)c2ccccn2)c2c3cc(OC)c(-c4c(C)noc4C)cc3ncc21 [Example 37, 7-(3,5-dimethyl-4-isoxazolyl)-8-(methyloxy)-3-[2-(methyloxy)ethyl]-1-[(1R)-1-(2-pyridinyl)ethyl]-1,3-dihydro-2H-imidazo[4,5-c]quinolin-2-one] |  | ≤ 3.16 |  |
| Cc1noc(C)c1-c1ccc2c(c1)ncc1ncn(-c3ccccc3C(C)(C)C)c12 [Example 18, 1-[2-(tert-butyl)phenyl]-7-(3,5-dimethyl-4-isoxazolyl)-1H-imidazo[4,5-c]quinoline] |  |  | melting point: 216 °C |
| COc1cc2c(cc1-c1c(C)noc1C)ncc1[nH]c(=O)n([C@H](C)c3ccccn3)c12 [Example 11, 7-(3,5-dimethyl-4-isoxazolyl)-8-(methoxy)-1-[(1R)-1-(2-pyridinyl)ethyl]-1,3-dihydro-2H-imidazo[4,5-c]quinolin-2-one] | ≤ 3.16 | ≤ 3.16 | IC50 (heme cell lines): 0.118 to 1.04 µM; Animals surviving at 4 days, percent (Balb/c male mice): 83%; Numbers of animals surviving at 4 days (summed across multiple repeat experiments) (Balb/c male mice): 55/66; IC50 (breast cell lines): 0.432 to 11.1 µM; IC50 [1]: 0.118 to 11.1 µM |
| COc1nc2c(cc1-c1c(C)noc1C)ncc1[nH]c(=O)n(-c3ccccc3OC(F)(F)F)c12 [Example 126, 7-(3,5-dimethyl-4-isoxazolyl)-8-(methyloxy)-1-{2-[(trifluoromethyl)oxy]phenyl}-1,3-dihydro-2H-imidazo[4,5-c]-1,5-naphthyridin-2-one] | ≤ 3.16 |  |  |
| COc1cc2c(cc1-c1c(C)noc1C)ncc1[nH]c(=O)n(-c3ccccc3OC(F)(F)F)c12 [Example 12, 7-(3,5-dimethyl-4-isoxazolyl)-8-(methoxy)-1-{2-[(trifluoromethyl)oxy]phenyl}-1,3-dihydro-2H-imidazo[4,5-c]quinolin-2-one] | ≤ 3.16 |  |  |

More lines, main results first:

| IC50 (TNFα) [µM] | IC50 (IL-6) [µM] | SMILES | other results |
| --- | --- | --- | --- |
| ≤ 3.16 |  | COc1cc2c(cc1-c1c(C)noc1C)ncc1[nH]c(=O)n(Cc3ccccc3)c12 [Example 15] |  |
|  | ≤ 3.16 | COCc1nc2cnc3cc(-c4c(C)noc4C)c(OC)cc3c2n1C(C)c1ccccn1 (stereo not drawn) [Example 51, 7-(3,5-dimethyl-4-isoxazolyl)-8-(methyloxy)-2-[(methyloxy)methyl]-1-[1-(2-pyridinyl)ethyl]-1H-imidazo[4,5-c]quinoline] |  |
|  | ≤ 3.16 | COc1cc2c(cc1-c1c(C)noc1C)ncc1[nH]c(=O)n([C@@H](C)c3ccccn3)c12 (single isomer, unassigned) [Example 39] |  |
| ≤ 3.16 |  | COc1cc2c(cc1-c1c(C)n[nH]c1C)ncc1nc(C3CCOCC3)n([C@H](C)c3ccccc3)c12 [Example 108, 7-(3,5-dimethyl-1H-pyrazol-4-yl)-8-(methyloxy)-1-[(1R)-1-phenylethyl]-2-(tetrahydro-2H-pyran-4-yl)-1H-imidazo[4,5-c]quinoline] |  |
|  | ≤ 3.16 | COc1cc2c(cc1-c1c(C)noc1C)ncc1nc(C3CCOCC3)n([C@H](C)c3ccccn3)c12 (single isomer, unassigned) [Example 45] |  |
| ≤ 3.16 |  | COc1cc2c(cc1-c1c(C)noc1C)ncc1nc(C3CCOCC3)n(Cc3ccccn3)c12 [Example 27, 7-(3,5-dimethyl-4-isoxazolyl)-8-(methoxy)-1-(2-pyridinylmethyl)-2-(tetrahydro-2H-pyran-4-yl)-1H-imidazo[4,5-c]quinoline] |  |
|  | ≤ 3.16 | COc1cc2c(cc1-c1c(C)noc1C)ncc1[nH]c(=O)n(C(C)c3cnn(C)c3)c12 (stereo not drawn) [Example 40, 7-(3,5-dimethyl-4-isoxazolyl)-8-(methyloxy)-1-[1-(1-methyl-1H-pyrazol-4-yl)ethyl]-1,3-dihydro-2H-imidazo[4,5-c]quinolin-2-one] |  |
